Measured values reported in publication PMC6615261, “Repurposing Azithromycin and Rifampicin Against Gram-Negative Pathogens by Combination With Peptidomimetics” (Frontiers in Cellular and Infection Microbiology, 2019).
Read-outs that look alike come from different tables or passages of the source. Values belong to the compound of their own block, whether it stands above or below them.

How the values were obtained:
K. pneumoniae ST258 [1] = test: Potentiation of additional antibiotics (COMPAN1F plates), MIC; assay type: cell-based, Klebsiella pneumoniae
Procedure: (§1) Minimal inhibitory concentrations (MICs) of peptidomimetics, antibiotics and their combinations were determined by broth microdilution according to the Clinical Laboratory Standards Institute performance standards (Clinical and Laboratory Standards Institute, [2013]). […] Since rifampicin and azithromycin mainly are used to treat infections with Gram-positive pathogens only CLSI clinical breakpoints were available for such bacteria. […] Potentiation of additional antibiotics by peptidomimetics was determined by using commercial 96-well plates containing varied concentrations of standard antibiotics (COMPAN1F; Trek Diagnostic Systems Inc.). The peptidomimetics were added immediately prior to inoculation with pathogen, and then MICs were determined as above. The MICs of peptidomimetic/antibiotic combinations were determined according to the method above, and the concentration ratios were selected based upon checkerboard results with 2:1 and 1:4 ratio of peptidomimetic with rifampicin or azithromycin, respectively. Minimal bactericidal concentrations (MBCs) were determined by using growth-curve assay plates. MIC plates were prepared as above, and then the plates were incubated at 37°C with continuous shaking. Growth was recorded at 10 min intervals as optical density (OD) at 600 nm during 24 h. At 24 h, for wells without growth, a sample was diluted 10-fold in sterile saline (0.9% sodium chloride) and plated onto MHA, following CLSI guidelines (Clinical and Laboratory Standards Institute, [1999]).

E. coli ST131 [2] = test: as above; assay type: cell-based, Escherichia coli
Procedure: as §1

K. pneumoniae ST258 [3] = tested on: K. pneumoniae ST258
Procedure: (§2) The potential synergistic effects in peptidomimetic-antibiotic combinations were assessed by using a two-dimensional checkerboard assay (Garcia, [2010]). Briefly, twofold dilutions of peptide and antibiotic were prepared in MBH II media along the X- and Y-axis, respectively, in 96-well plates. The inoculum was added to the plates, and subsequently these were incubated for 18–20 h. All steps for inoculum preparation and broth microdilution were in accordance with the CLSI guidelines (Clinical and Laboratory Standards Institute, [2013]). The fractional inhibitory concentration index (FICI) was calculated as [MICA(A+B)/MICA(alone)] + [MICB(A+B)/MICB(alone)], where MICA(A+B) represents the MIC of antibiotic (A) in combination with peptidomimetic (B), while MICB(A+B) represents the MIC of peptidomimetic (B) in combination with antibiotic (A). MICA(alone) and MICB(alone) represent the MIC of each compound individually. FICI values of ≤0.5 were interpreted as synergy.

MDR E. coli ST131 = test: Screening of peptidomimetic-antibiotic combinations (growth / growth inhibition); assay type: cell-based, Escherichia coli; set-up: key to Growth in combination with RIF / Growth in combination with AZM: Growth (+); growth inhibition (–)
Procedure: as §1

[4] = MTS/PMS cell viability assay; assay type: cell-based; details: human, HepG2 hepatocytes, 1 h exposure, read-out: Cytotoxicity HepG2 EC50 ± SD
Procedure: (§3) NIH 3T3 and HepG2 cells (both from ATCC, Manassas, VA, USA) were cultured in flat-bottomed 96-well MicroWell™ plates (NUNC, Roskilde, Denmark) at seeding densities of ~23,000 and ~22,000 cells/well, respectively, and then cultured for 22–24 h under standard culturing conditions (37°C, 5% CO2, humidified air) to reach 80–90% confluence. NIH 3T3 were cultured in Dulbecco's modified Eagle's medium (DMEM) supplemented with 10% (v/v) newborn-calf serum (NCS) (Gibco, Paisly, UK), while HepG2 were cultured in Eagle's minimum essential medium (EMEM) supplemented with 10% (v/v) fetal bovine serum (FBS, Gibco, Paisly, UK), sodium pyruvate (1 mM), and non-essential amino acids (1%, v/v). Both culturing media were further supplemented with penicillin (100 U/mL), streptomycin (100 μg/mL), and L-glutamine (2 mM).
(§4) Effect on cell viability was determined in NIH 3T3 fibroblasts and HepG2 hepatocytes by using the MTS/PMS assay measuring metabolic activity. Briefly, the adhered cells were washed with 37°C Hanks' balanced salt solution (HBSS from Sigma-Aldrich, St. Louis, MO, USA), containing 10 mM HEPES (AppliChem, Darmstadt, Germany), and adjusted to pH 7.4, and were then exposed for 1 h to 100 μL of test compound(s) dissolved in the appropriate culturing medium without serum for each cell line. After exposure the cells were washed with HBSS containing 10 mM HEPES (pH 7.4) and 100 μL of an MTS/PMS solution, consisting of 240 μg/mL MTS (Promega, Madison, WI, USA) and 2.4 μg/mL PMS (SigmaAldrich, Buchs, Switzerland) in HBSS, was added to the cells, which then were incubated for 1 h at 37°C with horizontal shaking under light protection. Absorbance was measured at 492 nm by using a POLARstar OPTIMA plate reader (BMG Labtech, Offenburg, Germany). The relative viability was calculated according to Equation (1) with absorbance values obtained after incubation of cells with test compound; incubation with SDS (0.2%, w/v in medium) defined 100% cell death (Abspos), while the absorbance of cells incubated with medium defined 0% cell death (Absneg).
(§5) (1) Relative viability(%)=(Abssample-Abspos)/(Absneg-Abspos)×100%
(§6) EC50 values were calculated by using GraphPad Prism 7 (GraphPad Software, La Jolla, CA, USA) via fitting of the relative cell viability to the concentration of the test compound by using Equation (2):
(§7) (2) Relative viability(%)= Top-Bottom/1+10^(LogIC50-Log[peptidomimetic]) ×Hill slope
(§8) With top and bottom representing the mean highest and lowest observed values, respectively. The Hill slope represents a factor for the steepness of the linear part of the curve. In order to prevent erroneous calculation, the top and bottom values were constrained to 100 and 0%, respectively. Data were collected from technical triplicates. The selectivity index was calculated as the average effect on cell viability (EC50 values for HepG2 and NIH 3T3 cells) divided by the MIC.

E. coli ST131 [5] = test: MIC by broth microdilution; assay type: cell-based, Escherichia coli; details: peptidomimetic alone
Procedure: as §1

K. pneumoniae ST258 [6] = test: MIC by broth microdilution; assay type: cell-based, Klebsiella pneumoniae
Procedure: as §1

K. pneumoniae ST258 [7] = test: Screening of peptidomimetic-antibiotic combinations (growth / growth inhibition); assay type: cell-based, Klebsiella pneumoniae; set-up: key to Growth in combination with RIF / Growth in combination with AZM: Growth (+); growth inhibition (–)
Procedure: as §1

NIH 3T3 and HepG2 cells = test: Effect on viability of mammalian cells (both cell lines); assay type: cell-based, mouse and human
Procedure: as §3, §4, §5, §6, §7
With top and bottom representing the mean highest and lowest observed values, respectively. The Hill slope represents a factor for the steepness of the linear part of the curve. […] The selectivity index was calculated as the average effect on cell viability (EC50 values for HepG2 and NIH 3T3 cells) divided by the MIC.

P. aeruginosa ATCC 27853 [8] = test: MIC by broth microdilution; assay type: cell-based, Pseudomonas aeruginosa; details: peptidomimetic alone
Procedure: as §1

P. aeruginosa ATCC 27853 [9] = tested on: P. aeruginosa ATCC 27853
Procedure: as §2

E. coli ST131 [10] = tested on: E. coli ST131
Procedure: as §2

[11] = MTS/PMS cell viability assay; assay type: cell-based, mouse; details: mouse, NIH 3T3 fibroblasts, 1 h exposure, read-out: Cytotoxicity NIH 3T3 EC50 ± SD
Procedure: as §3, §4, §5, §6, §7, §8

[12] = 0.5 μM peptidomimetic + 0.5 μg/mL rifampicin
[13] = peptidomimetic 0.5 μM + azithromycin 1 μg/mL
[14] = peptidomimetic 0.5 μM + rifampicin 0.5 μg/mL
[15] = MIC of azithromycin combined with the labelled peptidomimetic
[16] = MIC of rifampicin combined with the labelled peptidomimetic

MIC of antibiotic in presence of peptidomimetic 1 (K. pneumoniae ST258 [1]; + 1 μM peptidomimetic 1): >4 µg/mL
MIC of antibiotic in presence of peptidomimetic 15 (K. pneumoniae ST258 [1]; + 1 μM peptidomimetic 15): >4 µg/mL
MIC of antibiotic in presence of peptidomimetic 26 (K. pneumoniae ST258 [1]; + 1 μM peptidomimetic 26): 2 µg/mL
MIC (K. pneumoniae ST258 [1]; Klebsiella pneumoniae, no peptidomimetic, read-out: MIC of antibiotic alone): > 4 µg/mL
MIC of antibiotic alone (K. pneumoniae ST258 [1]; no peptidomimetic): >4 µg/mL
MIC of antibiotic in presence of peptidomimetic 26 (E. coli ST131 [2]; + 0.25 μM peptidomimetic 26): >4 µg/mL
MIC of antibiotic in presence of peptidomimetic 1 (E. coli ST131 [2]; + 0.5 μM peptidomimetic 1): 4 µg/mL
MIC of antibiotic in presence of peptidomimetic 15 (E. coli ST131 [2]; + 0.5 μM peptidomimetic 15): >4 µg/mL
MIC (E. coli ST131 [2]; Escherichia coli, no peptidomimetic, read-out: MIC of antibiotic alone): > 4 µg/mL
Antibiotic MIC alone (K. pneumoniae ST258 [3]; checkerboard): 125 µg/mL
SMILES: CCC[C@@H]1C[C@@H](C(=O)N[C@@H]([C@H]2O[C@H](SC)[C@H](O)[C@@H](O)[C@H]2O)[C@H](C)Cl)N(C)C1 [Clindamycin]

MIC E. coli ST131 (E. coli ST131 [5]): 1 µM
MIC K. pneumoniae ST258 (K. pneumoniae ST258 [6]; peptidomimetic alone): 32 µM
MIC P. aeruginosa ATCC 27853 (P. aeruginosa ATCC 27853 [8]): 1 µM
Antibiotic MIC in combination (RIF) (P. aeruginosa ATCC 27853 [9]; P. aeruginosa ATCC 27853, MIC of rifampicin combined with the labelled peptidomimetic): 0.5 µg/mL
Peptidomimetic MIC alone (P. aeruginosa ATCC 27853 [9]; P. aeruginosa ATCC 27853, checkerboard): 1 µM
Peptidomimetic MIC in combination (P. aeruginosa ATCC 27853 [9]; P. aeruginosa ATCC 27853, combined with AZM): 0.5 µM
Peptidomimetic MIC in combination (P. aeruginosa ATCC 27853 [9]; P. aeruginosa ATCC 27853, combined with RIF): 0.5 µM
Reduction of the MIC of azithromycin (P. aeruginosa ATCC 27853 [9]; P. aeruginosa, sub-MIC concentrations of peptidomimetic): 32- to 512 fold
Antibiotic MIC in combination (AZM) (E. coli ST131 [10]; [15]): 1 µg/mL
Antibiotic MIC in combination (RIF) (E. coli ST131 [10]; [16]): 0.5 µg/mL
Peptidomimetic MIC alone (E. coli ST131 [10]; checkerboard): 1 µM
Peptidomimetic MIC in combination (E. coli ST131 [10]; combined with AZM): 0.13 µM
Peptidomimetic MIC in combination (E. coli ST131 [10]; combined with RIF): 0.13 µM
Antibiotic MIC in combination (AZM) (K. pneumoniae ST258 [3]; [15]): 8 µg/mL
Antibiotic MIC in combination (RIF) (K. pneumoniae ST258 [3]; [16]): 0.5 µg/mL
Peptidomimetic MIC alone (K. pneumoniae ST258 [3]; checkerboard): 32 µM
Peptidomimetic MIC in combination (K. pneumoniae ST258 [3]; combined with AZM): 0.5 µM
Peptidomimetic MIC in combination (K. pneumoniae ST258 [3]; combined with RIF): 0.5 µM
SMILES: CC(=O)N[C@@H](CCCCN)C(=O)N(CCC(=O)N[C@@H](CCCCN)C(=O)N(CCC(=O)N[C@@H](CCCCN)C(=O)N(CCC(=O)N[C@@H](CCCCN)C(=O)N(CCC(=O)N[C@@H](CCCCN)C(=O)N(CCC(=O)N[C@@H](CCCCN)C(=O)N(CCC(=O)N[C@@H](CCCCN)C(=O)N(CCC(=O)N[C@@H](CCCCN)C(=O)N(CCC(N)=O)Cc1ccccc1)Cc1ccccc1)Cc1ccccc1)Cc1ccccc1)Cc1ccccc1)Cc1ccccc1)Cc1ccccc1)Cc1ccccc1 [Peptidomimetic 15, Ac-(Lys-βNPhe)8-NH2]
Screening result with rifampicin (MDR E. coli ST131; [12]): inhibit growth
Growth in combination with AZM (MDR E. coli ST131; [13]): –
Growth in combination with RIF (MDR E. coli ST131; [14]): –
EC50 at 1 h [4]: 121.37 ± 0.06 µM
Selectivity Index (SI) K. pneumoniae ST258 (K. pneumoniae ST258 [6]; average of EC50 (HepG2, NIH 3T3) divided by MIC): (5)
Screening result with rifampicin (K. pneumoniae ST258 [7]; [12]): inhibit growth
Growth in combination with AZM (K. pneumoniae ST258 [7]; [13]): +
Growth in combination with RIF (K. pneumoniae ST258 [7]; [14]): –
EC50 (NIH 3T3 and HepG2 cells): > 100 µM
EC50 at 1 h [11]: 217 ± 23.1 µM
